Reference: patent publication US10702495B2, “Method and compositions for treating dystrophies and myotonia” (priority 2017, dated 2020)

What was measured:
[1] = system: patients with myotonia; experiment: Disease history: previous treatments for myotonia and myalgia (case reports); settings: for effect of previous treatment on myotonia, patient 6: CLCN1-congenital myotonia; for effect of previous treatment on myotonia, patient 6 / outcome of previous treatment of myotonia, patient 2 / outcome of previous treatment of myalgia, patient 2: disease history; for outcome of previous treatment of myotonia, patient 2 / outcome of previous treatment of myalgia, patient 2: DM2
Excerpt: This person was diagnosed with DM2. As DM2-related comorbidities they have diabetes mellitus type 2 without diabetic neuropathy, and controlled paroxysmal atrial fibrillation. Their main muscular complaints have always been a severe grip myotonia and myotonia of the legs while walking, as well as persistent myalgia especially at lower back. In the last several years they developed a proximal and axial muscle weakness (MRC grade 4). […] After discussing potential risks and benefits, a compassionate use with low dose CBD/THC has been started.
This person was diagnosed with CLCN1-congenital myotonia. They have a severe therapy-resistant grip and generalized myotonia.

[2] = system: dystrophic mdx mice; settings: injection; mostly via activation of TRPV1 and TRPA1; cited from earlier work

Row | Compound | effect of previous treatment on myotonia, patient 6 [1] | outcome of previous treatment of myotonia, patient 2 [1] | outcome of previous treatment of myalgia, patient 2 [1] | further results
1 | Nc1nnc(-c2cccc(Cl)c2Cl)c(N)n1 [lamotrigine] | no relevant improvement of myotonia was obtained |  |  | 
2 | NC(=O)N1c2ccccc2C=Cc2ccccc21 [carbamazepine] | no relevant improvement of myotonia was obtained | suspended due to inefficacy and risk of cardiac arrhythmias |  | 
3 | C=C(C)[C@@H]1CCC(C)=C[C@H]1c1c(O)cc(CCCCC)cc1O [CBD, Cannabidiol] |  |  |  | myotube formation and inflammation [2]: promoted myotube formation and reduced inflammation
4 | COc1ccccc1OCC(O)COC(N)=O (stereo not shown) [methocarbamol] |  |  | unsuccessfully treated | 
5 | O=C(NCC1CCCCN1)c1cc(OCC(F)(F)F)ccc1OCC(F)(F)F (stereo not shown) [flecainid] | no relevant improvement of myotonia was obtained |  |  | 
6 | CC(C)C[C@H](CN)CC(=O)O [pregabalin] |  | suspended due to inefficacy and risk of cardiac arrhythmias | unsuccessfully treated | 
7 | Cc1ccc(C(=O)C(C)CN2CCCCC2)cc1 (stereo not shown) [tolperisone] | no relevant improvement of myotonia was obtained |  |  | 
8 | CC(C)Cc1ccc(C(C)C(=O)O)cc1 (stereo not shown) [ibuprofen] |  |  | unsuccessfully treated | 
9 | Cc1cccc(C)c1OCC(C)N (stereo not shown) [mexiletine] | improved the myotonia | suspended due to inefficacy and risk of cardiac arrhythmias |  | drug-related side effect of previous treatment, patient 6 ([1]; resolved on drug discontinuation): severe major depression
